# Tests used:
# human dental follicle = experiment: Organoid formation from dissociated dental follicle; essentiality of medium factors assessed by omitting; assay type: cell-based; conditions: individual factor omitted from medium; P0, day 14 (FIG. 7a)
# Source text: To develop epithelial organoids starting from human tooth, the dental follicle, known to encompass a large mesenchymal component but also the small epithelial epithelial cell rests of Malassez compartment, was isolated from unerupted third molars (wisdom teeth) extracted from adolescent patients (FIG. 1a). After tissue dissociation, the epithelial-mesenchymal cell mixture, comprising single cells and cell clusters, was embedded in Matrigel and cultured in a precisely defined medium. Organoids are typically established using a cocktail of growth and regulatory factors active in the tissue's epithelial stem cell niche. In case niche signals are unresolved, factors with a key role in the tissue's embryonic development are applied. […] The starting point is a medium containing these factors as well as generic organoid growth factors (such as WNT activators, nicotinamide, BMP inhibitor and p38 MAPK inhibitor), and assessed the essentiality of individual factors by omitting. […] Eventually, this systematic evaluation led to defining an optimized medium (further referred to as tooth organoid medium or TOM; Table 1), allowing to develop organoid lines from dental follicle samples at 100% efficiency (Table 2).
# Third molars, predominantly unerupted, were extracted from adolescent patients (Table 2) at the ‘Oral and Maxillo-Facial Surgery-Imaging & Pathology (OMFS-IMPATH)’ unit of University Hospitals (UZ) Leuven after informed consent. The study was approved by the Ethics Committee Research UZ/KU Leuven (13/0104U). For sample collection, the gingiva was pushed aside after which the bone was perforated and the third molars with associated dental follicles were carefully isolated (without the visually distinct gingiva). dental follicle tissue was diligently peeled from the tooth and collected in Eagle's Minimum Essential Medium (αMEM; Sigma-Aldrich) supplemented with 10% foetal bovine serum (FBS; Sigma-Aldrich), 1% penicillin-streptomycin (Gibco) and 0.5% fungizone (Amphotericin B; Gibco). Following short rinsing steps in 70% ethanol and phosphate-buffered saline (PBS; Gibco), tissue was minced into small (˜1 mm^2) fragments, and further dissociated using collagenase VI (3 mg/ml; Thermo Fisher Scientific) and dispase II (4 mg/ml; Sigma-Aldrich) for 2 h at 37° C., while regularly pipetting up and down. The single cells and few small cell clusters were collected through a 40 μm cell strainer (Corning) while removing the remaining larger and fibrous tissue fragments.
# (§1) The dissociated dental follicle cell material was resuspended in a mixture of serum-free defined medium (SFDM; Thermo Fisher Scientific; Table 4) and growth factor-reduced Matrigel (Corning) in a 30:70 ratio, which was plated in 48-well plates at 20,000 cells per 20 μL drop. After solidification, tooth organoid medium (TOM; Table 1), unless indicated otherwise, was supplemented. ROCK inhibitor (RI; 10 μM; Merck Millipore) was added the first day of seeding (or passaging). Organoid cultures were kept at 37° C. in a 1.9% CO2 incubator, and medium was refreshed every 2 to 3 days, each time supplemented with fungizone (0.1%).
# tooth organoids [1] = experiment: EGF supplementation of tooth organoid cultures (TOM+EGF): proliferation and EMT; assay type: cell-based, human
# Source text: To establish organoids from primary tissues, supplementation of EGF is generally found quintessential. […] In vivo, it is known that elevated EGF levels in the epithelial cell rests of Malassez compartment (as, for instance, occurring upon tooth movement, infection or trauma) activates epithelial cell rests of Malassez cell proliferation [Davis (2018) J. Vet. Dent. 35, 290-298]. […] It has been proposed that EMT induction in the epithelial cell rests of Malassez (as, for instance, occurring upon damaging tooth impact) enables the cells to migrate and eventually contribute to regeneration of neighbouring tissues [Davis (2018) J. Vet. Dent. 35, 290-298].
# as §1
# (§2) Primary dental follicle tissue, organoids and assembloid were fixed in 4% PFA for 1h, embedded in paraffin, and sections subjected to hematoxylin and eosin (H&E), immunofluorescence or ARS staining. Antigen retrieval (10 mM citrate, pH6) and permeabilization (0.1% Triton X-100; Sigma-Aldrich) were performed. After incubation with primary and secondary antibodies (Table 5), sections were mounted with Vectashield (DAPI; Vector Laboratories) or DPX mountant (Sigma-Aldrich). Analysis was done using a Leica DM5500 epifluorescence microscope or a Zeiss Axioimager epifluorescence microscope. ImageJ software was used to quantify immunoreactive signal intensity and the ‘corrected total organoid fluorescence’ (CTOF) (=integrated density−(area of organoid×mean fluorescence of background readings).
# RNA was extracted from dissociated dental follicle, organoids and assembloids using the GenElute Mammalian Total RNA Miniprep Kit (Sigma-Aldrich) according to the manufacturer's instructions. RNA was reverse-transcribed (RT) using the Superscript III First-Strand Synthesis Supermix (Thermo Fisher Scientific) and the resultant cDNA samples were analysed with SYBR Green-based quantitative PCR (qPCR) using the StepOnePlus Real-Time PCR System (AB Applied Biosystems). Forward and reverse primers (Table 6) were designed using PrimerBank and PrimerBlast. […] Relative gene expression levels were calculated as ΔCt (Ct target−Ct housekeeping gene) and compared to control (see figure legends).
# tooth organoids [2] = experiment: Effect of TGFβ and TGFβ receptor inhibitor on differentiation of organoids switched to MIM; assay type: cell-based, human
# Source text: The above analyses exposed the enrichment of TGFβ pathway processes in tooth organoids subjected to ameloblast differentiation, in line with the proposed key role of TGFβ in amelogenesis. To assess the impact of the TGFβ pathway, organoids grown in TOM (P5) were switch to MIM with or without TGFβ (FIG. 6a).
# During tooth root development, Hertwig's epithelial root sheath (HERS), from which epithelial cell rests of Malassez is eventually derived, undergoes EMT to develop to participate in periodontal ligament formation. It has previously been proposed that this EMT process is regulated by TGFβ, thereby triggering HERS/epithelial cell rests of Malassez cells to switch phenotype toward periodontal ligament cells.
# Organoids (or dissociated dental follicle) were cultured in mineralization-inducing medium (MIM; Table 3; time schedule, see FIG. 4a and FIG. 10d) as described above. Recombinant human TGFβ1 (10 ng/ml; R&D) and the selective TGFβ receptor 1/2 inhibitor LY2109761 (5 μM; Selleckchem) were added when indicated.
# as §2
# RNA was extracted from dissociated dental follicle, organoids and assembloids using the GenElute Mammalian Total RNA Miniprep Kit (Sigma-Aldrich) according to the manufacturer's instructions. RNA was reverse-transcribed (RT) using the Superscript III First-Strand Synthesis Supermix (Thermo Fisher Scientific) and the resultant cDNA samples were analysed with SYBR Green-based quantitative PCR (qPCR) using the StepOnePlus Real-Time PCR System (AB Applied Biosystems). Forward and reverse primers (Table 6) were designed using PrimerBank and PrimerBlast. Glyceraldehyde-3-phosphate dehydrogenase (GAPDH) was included as housekeeping gene. Relative gene expression levels were calculated as ΔCt (Ct target−Ct housekeeping gene) and compared to control (see figure legends).
# assembloids = experiment: Assembloids (organoid-derived epithelial cells plus DPSCs) cultured in TOM+αMEM with TGFβ receptor inhibitor; assay type: cell-based, human; conditions: inhibitor 5 μM in TOM+αMEM
# Protocol: It was chosen to use DPSCs to mimic early stages of tooth development in which DPSC-derived odontoblasts are in close contact with ameloblasts. The DPSCs, isolated, grown and characterized using well-defined standard protocols, were combined with organoid-derived epithelial stem cells in a layered approach, thereby forming composite organoids (assembloids) which were cultured in a mixture of TOM and the DPSC growth medium αMEM (FIG. 6d).
# Whereas ODAM is not present in the straight (pure) epithelial organoids cultured in TOM (see above and FIG. 12c), it is expressed in the assembloids (FIG. 6d). This induction is not due to the addition of αMEM to TOM (FIG. 12c). […]
# Primary dental follicle tissue, organoids and assembloid were fixed in 4% PFA for 1h, embedded in paraffin, and sections subjected to hematoxylin and eosin (H&E), immunofluorescence or ARS staining. […] ImageJ software was used to quantify immunoreactive signal intensity and the ‘corrected total organoid fluorescence’ (CTOF) (=integrated density−(area of organoid×mean fluorescence of background readings).
# RNA was extracted from dissociated dental follicle, organoids and assembloids using the GenElute Mammalian Total RNA Miniprep Kit (Sigma-Aldrich) according to the manufacturer's instructions. […] Relative gene expression levels were calculated as ΔCt (Ct target−Ct housekeeping gene) and compared to control (see figure legends).
molecule,measurement,setting,value
"NC(=O)c1cccnc1 [nicotinamide, reference compound]",need of the factor for efficient organoid formation,human dental follicle,needed for efficient organoid formation
epidermal growth factor [EGF],number of proliferating (KI67+) cells in the organoids,"tooth organoids [1]; EGF 50 ng/ml to initiating cultures, P0, day 7",increased number
same,proliferation,"tooth organoids [1]; EGF 50 ng/ml, P0, day 14",decline in proliferation
same,EMT / VIM expression in the organoids' border,"tooth organoids [1]; EGF 50 ng/ml, P0, day 14, colocalized with CK5 or P63",induction of an EMT process
same,VIM+ cells after EGF exposure following growth and expansion in TOM,"tooth organoids [1]; P5, day 14, also cell migration out of organoids",appearance of VIM^+ cells
"Oc1ccc(-c2nc(-c3ccncc3)c(-c3ccc(F)cc3)[nH]2)cc1 [SB202190, reference compound]",need of the factor for efficient organoid formation,human dental follicle,needed for efficient organoid formation
sonic hedgehog [SHH],need of the factor for efficient organoid formation,human dental follicle,needed for efficient organoid formation
insulin-like growth factor-1 [IGF1],need of the factor for efficient organoid formation,human dental follicle,needed for efficient organoid formation
transforming growth factor-beta [TGFβ],VIM expression in the epithelial (CK5+) organoids,tooth organoids [2]; MIM with TGFβ,further increased
same,AMTN gene expression,"tooth organoids [2]; MIM with TGFβ 10 ng/ml, RT-qPCR",increased expression
same,expression of periodontal ligament-specific genes POSTN and COL3A1,"tooth organoids [2]; MIM with TGFβ, RT-qPCR",significantly stimulated
same,ODAM expression (immunofluorescence),tooth organoids [2]; TOM-grown P5 organoids switched to MIM with TGFβ 10 ng/ml,further upregulated
FGF2,need of the factor for efficient organoid formation,human dental follicle,needed for efficient organoid formation
"c1ccc(-c2nn3c(c2-c2ccnc4cc(OCCN5CCOCC5)ccc24)CCC3)nc1 [LY2109761, reference compound]",effect of TGFβ on ODAM and AMTN expression,tooth organoids [2]; inhibitor 5 μM added simultaneously with TGFβ in MIM,blocked
same,upregulated ODAM and AMTN expression in MIM,"tooth organoids [2]; inhibitor 5 μM, without exogenous TGFβ",strongly reduced
same,AMTN expression in the assembloids,assembloids,reduced
same,ODAM protein expression in the assembloids,assembloids,completely abolished
"FGF8 (protein, UniProt P55075 23-233, looked up, fibroblast growth factor) Fibroblast growth factor 8: QEGPGRGPALGRELASLFRAGREPQGVSQQHVREQSLVTDQLSRRLIRTYQLYSRTSGKHVQVLANKRINAMAEDGDPFAKLIVETDTFGSRVRVRGAETGLYICMNKKGKLIAKSNGKGKDCVFTEIVLENNYTALQNAKYEGWYMAFTRKGRPRKGSKTRQHQREVHFMKRLPRGHHTTEQSLRFEFLNYPPFTRSLRGSQRTWAPEPR",need of the factor for efficient organoid formation,human dental follicle,needed for efficient organoid formation
"Noggin (protein, UniProt Q13253 28-232, looked up) Noggin: QHYLHIRPAPSDNLPLVDLIEHPDPIFDPKEKDLNETLLRSLLGGHYDPGFMATSPPEDRPGGGGGAAGGAEDLAELDQLLRQRPSGAMPSEIKGLEFSEGLAQGKKQRLSKKLRRKLQMWLWSQTFCPVLYAWNDLGSRFWPRYVKVGSCFSKRSCSVPEGMVCKPSKSVHLTVLRWRCQRRGGQRCGWIPIQYPIISECKCSC",need of the factor for efficient organoid formation,human dental follicle,needed for efficient organoid formation
"R-spondin 1 (protein, UniProt Q2MKA7 21-263, looked up) R-spondin-1: SRGIKGKRQRRISAEGSQACAKGCELCSEVNGCLKCSPKLFILLERNDIRQVGVCLPSCPPGYFDARNPDMNKCIKCKIEHCEACFSHNFCTKCKEGLYLHKGRCYPACPEGSSAANGTMECSSPAQCEMSEWSPWGPCSKKQQLCGFRRGSEERTRRVLHAPVGDHAACSDTKETRRCTVRRVPCPEGQKRRKGGQGRRENANRNLARKESKEAGAGSRRRKGQQQQQQQGTVGPLTSAGPA",need of the factor for efficient organoid formation,human dental follicle,needed for efficient organoid formation
"FGF10 (protein, UniProt O15520 38-208, looked up, fibroblast growth factor) Fibroblast growth factor 10: QALGQDMVSPEATNSSSSSFSSPSSAGRHVRSYNHLQGDVRWRKLFSFTKYFLKIEKNGKVSGTKKENCPYSILEITSVEIGVVAVKAINSNYYLAMNKKGKLYGSKEFNNDCKLKERIEENGYNTYASFNWQHNGRQMYVALNGKGAPRRGQKTRRKNTSAHFLPMVVHS",need of the factor for efficient organoid formation,human dental follicle,needed for efficient organoid formation

# Source: patent publication US20250171743A1, “HUMAN TOOTH ORGANOIDS” (Katholieke Universiteit Leuven, priority 2022, published 2025)
